The values below come from patent US20170217964A1, “AMINOTETRAHYDROPYRAN DERIVATIVE USED AS DIPEPTIDYL PEPTIDASEIV INHIBITOR” (FUJIAN BORO MEDICAL CO., LTD., priority 2014, published 2017).

One data set has as its target T1, DPP-4 enzyme (Homo sapiens, UniProt P27487).
T1 construct: purchased SIGMA
The experiment in a line: Test of the inhibition activity to the DPP-4 enzyme (fluorescence, substrate Gly-Pro-7-amido-4-methylcoumarin). Particulars: in vitro; compounds of the examples; read-out: DPP-4 inhibition ID50. It is filed as biochemical. An excerpt: Test of the inhibition activity of the compound of the present invention to the DPP-4 enzyme: […]

The nature of data set [1]: stability test of human liver microsomes. It is filed as in vitro ADME. Background: Liver microsomes are vesicles of endoplasmic reticulum, rich in cytochrome P450 enzymes.

T1 sequence (P27487 whole entry, species assumed): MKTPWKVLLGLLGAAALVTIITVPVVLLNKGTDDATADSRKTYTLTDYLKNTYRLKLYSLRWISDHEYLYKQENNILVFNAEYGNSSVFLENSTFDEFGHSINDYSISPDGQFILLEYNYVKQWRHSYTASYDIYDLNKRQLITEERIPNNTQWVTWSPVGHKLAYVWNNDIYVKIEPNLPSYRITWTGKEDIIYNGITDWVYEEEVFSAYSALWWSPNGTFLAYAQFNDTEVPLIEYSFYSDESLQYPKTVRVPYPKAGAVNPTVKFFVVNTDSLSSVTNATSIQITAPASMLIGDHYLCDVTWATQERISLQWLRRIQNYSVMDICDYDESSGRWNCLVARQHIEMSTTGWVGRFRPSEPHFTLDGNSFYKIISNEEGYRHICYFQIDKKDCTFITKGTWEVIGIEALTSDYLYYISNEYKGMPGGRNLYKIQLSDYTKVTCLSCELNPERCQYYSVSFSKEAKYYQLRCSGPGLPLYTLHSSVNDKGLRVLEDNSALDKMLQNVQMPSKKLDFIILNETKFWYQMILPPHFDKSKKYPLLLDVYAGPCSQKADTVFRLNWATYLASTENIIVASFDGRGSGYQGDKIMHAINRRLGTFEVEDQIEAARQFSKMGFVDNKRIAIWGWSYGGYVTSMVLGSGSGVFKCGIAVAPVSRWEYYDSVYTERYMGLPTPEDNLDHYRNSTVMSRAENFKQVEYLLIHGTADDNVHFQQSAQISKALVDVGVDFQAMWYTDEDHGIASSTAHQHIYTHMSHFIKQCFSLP

On to `N[C@H]1C[C@@H](N2Cc3cn(S(=O)(=O)N4CCCC4)nc3C2)CO[C@@H]1c1cc(F)ccc1F` [Compound 3], for which the IC50 on DPP-4 enzyme was determined as 0.3 nM.
In the case of `N[C@H]1C[C@@H](N2Cc3cn(S(=O)(=O)N4CCOCC4)nc3C2)CO[C@@H]1c1cc(F)ccc1F` [Compound 1, (2R, 3S, 5R)-2-(2,5-difluorophenyl)-5-[2-(morpholinesulfonyl)-2,6-dihydropyrrolo[3,4,-c]pyrazol-5(4H)-yl]tetrahydro-2H-pyran-3-amine], the “metabolism stability compared with MK-3102” value in data set [1] was “better metabolism stability”. For the same compound, at DPP-4 enzyme, the IC50 came out at 0.5 nM.
In the case of `N[C@H]1C[C@@H](N2Cc3cn(S(=O)(=O)N4CC5CCCCC5C4)nc3C2)CO[C@@H]1c1cc(F)ccc1F` (stereo partly drawn) [Compound 15, (2R, 3S, 5R)-2-(2,5-difluorophenyl)-5-[2-(perhydroindole-1 sulfonyl)-2,6-dihydropyrrolo[3,4,-c]pyrazol-5(4H)-yl]tetrahydro-2H-pyran-3-amine], the IC50 at DPP-4 enzyme was 0.7 nM.
`CC1CCN(S(=O)(=O)n2cc3c(n2)CN([C@H]2CO[C@H](c4cc(F)ccc4F)[C@@H](N)C2)C3)CC1` [Compound 14]: at DPP-4 enzyme, the IC50 worked out at 0.4 nM.
For `N[C@H]1C[C@@H](N2Cc3cn(S(=O)(=O)N4CCCCC4)nc3C2)CO[C@@H]1c1cc(F)ccc1F` [Compound 2, (2R, 3S, 5R)-2-(2,5-difluorophenyl)-5-[2-(piperidinesulfonyl)-2,6-dihydropyrrolo[3,4,-c]pyrazol-5(4H)-yl]tetrahydro-2H-pyran-3-amine], the IC50 at DPP-4 enzyme was found to be 0.8 nM.
On to `CN1CCN(S(=O)(=O)n2cc3c(n2)CN([C@H]2CO[C@H](c4cc(F)ccc4F)[C@@H](N)C2)C3)CC1` [Compound 4, (2R, 3S, 5R)-2-(2,5-difluorophenyl)-5-[2-(N-methylpiperazinesulfonyl)-2,6-dihydropyrrolo[3,4,-c]pyrazol-5(4H)-yl]tetrahydro-2H-pyran-3-amine], for which the “metabolism stability compared with MK-3102” value in data set [1] is “better metabolism stability”. The IC50 on DPP-4 enzyme is 0.6 nM.
Regarding `N[C@H]1C[C@@H](N2Cc3cn(S(=O)(=O)N4CCC4)nc3C2)CO[C@@H]1c1cc(F)ccc1F` [Compound 13, (2R, 3S, 5R)-2-(2,5-difluorophenyl)-5-[2-(azetidine-1-sulfonyl)-2,6-dihydropyrrolo[3,4,-c]pyrazol-5(4H)-yl]tetrahydro-2H-pyran-3-amine], at DPP-4 enzyme, the IC50 stood at 0.5 nM.
Turning to `N[C@H]1C[C@@H](N2Cc3cn(S(=O)(=O)N4CCN(C5CCCC5)CC4)nc3C2)CO[C@@H]1c1cc(F)ccc1F` [Compound 5, (2R, 3S, 5R)-2-(2,5-difluorophenyl)-5-[2-(4-cyclopentylpiperazine-1-yl-sulfonyl)-2,6-dihydropyrrolo[3,4,-c]pyrazol-5(4H)-yl]tetrahydro-2H-pyran-3-amine], on DPP-4 enzyme, the IC50 was 0.2 nM.
